Measurements reported in ChEMBL document CHEMBL3860033, “Recent advances of cytotoxic chalconoids targeting tubulin polymerization: Synthesis and biological activity” (Eur J Med Chem, 2016).
One block for each compound: values may come before it.

Experiments:
[1] = Cytotoxicity against human SW620 cells assessed as decrease in cell viability after 24 to 48 hrs by CCK8 assay; format: functional, cell-based; conditions: SW-620
[2] = Cytotoxicity against human A549 cells assessed as decrease in cell viability after 72 hrs by MTT assay; format: functional, cell-based; conditions: A549, 72 h
[3] = Cytotoxicity against human HCT116 cells assessed as decrease in cell viability after 72 hrs by MTT assay; format: functional, cell-based; conditions: HCT-116, 72 h
[4] = Cytotoxicity against human HeLa cells assessed as decrease in cell viability after 72 hrs by MTT assay; format: functional, cell-based
[5] = Cytotoxicity against human Capan1 cells assessed as decrease in cell viability after 24 to 48 hrs by CCK8 assay; format: functional, cell-based; conditions: CAPAN-1
Ovis aries = species on record: Ovis aries; assay: Binding affinity to lamb brain tubulin using ultracentrifuge by absorbance assay
[6] = Cytotoxicity against human K562 cells assessed as growth inhibition after 5 days by MTT assay; format: functional, cell-based; conditions: K562, 120 h
[7] = Inhibition of porcine brain tubulin polymerization by spectrophotometric method; set-up: species or system Sus scrofa
[8] = Displacement of [3H]-colchicine from porcine tubulin; set-up: species or system Sus scrofa
[9] = Cytotoxicity against human NCI60 cells after 48 hrs by SRB assay; format: functional; conditions: NCI60, 48 h

SMILES: COc1cc(OC)c(/C=C/C(=O)c2c(O)ccc3ccccc23)c(OC)c1
IC50 [1]: 14.5 µM

SMILES: CCOc1cc2c(cc1C(=O)/C=C/c1ccc(OC)c(O)c1)OCS2
IC50 [2]: 0.001 to 0.009 µM
IC50 [3]: 0.001 to 0.009 µM
IC50 [4]: 0.001 to 0.009 µM

SMILES: COc1ccc(C(=O)/C=C/c2cccc3ccccc23)c(O)c1
IC50 [5]: 5.2 µM

Kapp (Ovis aries): 2 ×10⁵ /M
SMILES: COc1cc(OC)c(C(=O)/C=C/c2cn(C)c3ccccc23)c(OC)c1

SMILES: COc1ccc(C=C(C)C(=O)c2cc(OC)c(OC)c(OC)c2)cc1O
IC50 [6]: 0.0002 µM

IC50 [7]: 22 µM
IC50 [8]: 60 µM
SMILES: COc1ccc(/C=C2\Oc3c(cc(OC)c(OC)c3OC)C2=O)cc1O

SMILES: COc1cc(C(=O)C2OC2c2cc(OC)c(OC)c(OC)c2)cc(OC)c1OC (stereo not given)
GI50 [9]: 14.1 µM
